Consider two substances from the OligoGym collection.

HELM strings list units from the 5' end as sugar, base in round brackets, then linkage (d deoxyribose, r ribose, m 2'-O-methyl, p phosphodiester). Strings are as the collection lists them, not checked against the first reports. ss, as = sense and antisense strand; [fl2r] = 2'-fluoro

For the data set the following is noted: siRNA.
Note: test system not given here.

Regarding “RNA1{r(U)p.r(U)p.r(U)p.r(C)p.r(C)p.r(C)p.r(C)p.r(C)p.[fl2r](A)p.[fl2r](G)p.[fl2r](G)p.r(U)p.[fl2r](A)p.[fl2r](A)p.[fl2r](C)p.[fl2r](G)p.r(A)p.r(U)p.r(U)p.r(T)p.r(T)}|RNA2{r(A)p.r(A)p.r(U)p.r(C)p.r(G)p.r(U)p.r(U)p.r(A)p.r(C)p.r(C)p.r(U)p.r(G)p.r(G)p.r(G)p.r(G)p.r(G)p.r(A)p.r(A)p.r(A)p.r(T)p.r(T)}$$$RNA1{StrandType:ss}|RNA2{StrandType:as}$”, the target mRNA knockdown was determined as 78%. In turn, “RNA1{r(U)p.r(U)p.r(U)p.r(C)p.r(C)p.r(C)p.r(C)p.r(C)p.r(A)p.r(G)p.r(G)p.[fl2r](U)p.r(A)p.r(A)p.r(C)p.r(G)p.r(A)p.r(U)p.r(U)p.r(T)p.r(T)}|RNA2{r(A)p.r(A)p.r(U)p.r(C)p.r(G)p.r(U)p.[fl2r](U)p.r(A)p.r(C)p.r(C)p.r(U)p.r(G)p.r(G)p.r(G)p.r(G)p.r(G)p.r(A)p.r(A)p.r(A)p.r(T)p.r(T)}$$$RNA1{StrandType:ss}|RNA2{StrandType:as}$” came in with a target mRNA knockdown of 75%.
